Laboratory results published in patent EP0559571A1, “Thiazolidine-2,4-dione derivatives, process for their preparation and pharmaceutical compositions containing them” (ADIR ET COMPAGNIE, priority 1992, dated 1993).

How the values were obtained:
souris ob/ob = assay: Hypoglycaemic activity in a non-insulin-dependent diabetes (NIDDM) model, ob/ob mouse; type: in vivo; conditions: ob/ob mice; for minimal effective dose: read-out: DMA (dose minimum active montrant une diminution de la glycémie de 10 à 15 %); for Pouvoir hypoglycémiant: at the equi-effective dose of Table 1, 4 days oral, base 100; for Dose provoquant le même effet hypoglycémiant: oral, daily for 4 days, glycaemia at J0 and J5, dose giving the same hypoglycaemic effect (base 100)
From the text: Les animaux (souris ob/ob) sont traités chaque jour, pendant 4 jours, en administrant par voie orale les composés de l'invention en suspension dans une solution à 20 % de gomme du Sénégal. Avant et après traitement, soit à J₀ et à J₅, le sang est prélevé par ponction du sinus orbital et la glycémie est déterminée. Le tableau 1 présente les doses des différents produits à administrer pour obtenir le même effet hypoglycémiant (base 100).
L'étude d'un effet-dose montre que la dose donnant une diminution de la glycémie initiale de 30 % : ED₃₀ pour le composé de l'exemple 2 est inférieure à 0,1 mg/kg alors que celle de la pioglitazone est comprise entre 5 et 10 mg/kg. La dose minimum active : DMA montrant une diminution de la glycémie de 10 à 15 % est de 0,1 mg/kg pour le composé de l'exemple 2 alors qu'elle est de 3 mg/kg pour la pioglitazone.

rats Zucker Fa/Fa mâles = assay: Model of decreased glucose tolerance with hyperinsulinaemia and hyperlipaemia, male Zucker Fa/Fa rats; type: in vivo; conditions: 5 mg/kg/day oral for 10 days, blood on day 11, control = 100; for AGL (%): free fatty acids; for TG (%): triglycerides
Protocol: Les animaux (rats Zucker Fa/Fa mâles) sont traités, chaque jour, pendant 10 jours en administrant, par voie orale, les composés de l'invention à la dose de 5 mg/kg/jour en suspension dans une solution à 20 % de gomme du Sénégal. Le 11ème jour, les animaux sont sacrifiés et le sang recueilli afin de déterminer la glycémie, les triglycérides plasmatiques et l'insuline immuno-réactive. D'autre part, les animaux sont pesés avant et après traitement.
Dans ces conditions, les composés de l'invention n'ont pas d'influence sur le taux de glucose circulant mais diminuent le taux de triglycérides et d'acides gras libres plasmatiques ainsi que celui de l'insuline immuno-réactive. Cette activité est égale ou supérieure à celle d'autres dérivés de thiazolidinedione de référence.

[1] = Mus musculus, po, dose-effect study

SMILES: O=C1NC(=O)C(Cc2ccc3oc(Cc4ccc5ccccc5c4)cc3c2)S1 (racemic) [Exemple 2, 5-[2-(2-Naphtylméthyl)-5-benzofuranylméthyl] thiazolidine-2,4-dione]
- minimal effective dose (souris ob/ob; [1]): 0.1 mg/kg
- ED30 (souris ob/ob; Mus musculus, po, dose-effect study, read-out: ED30 (dose donnant une diminution de la glycémie initiale de 30 %)): < 0.1 mg/kg
- Pouvoir hypoglycémiant (souris ob/ob): 100
- Dose provoquant le même effet hypoglycémiant (souris ob/ob): 5-10 mg/kg/jour
- Glycémie (%) (rats Zucker Fa/Fa mâles): 97%
- Plasma insuline (%) (rats Zucker Fa/Fa mâles): 50%
- AGL (%) (rats Zucker Fa/Fa mâles): 48%
- TG (%) (rats Zucker Fa/Fa mâles): 35%

SMILES: Cc1c(C)c2c(c(C)c1O)CCC(C)(COc1ccc(CC3SC(=O)NC3=O)cc1)O2 (stereo not drawn) [CS 045]
- Pouvoir hypoglycémiant (souris ob/ob): 100
- Dose provoquant le même effet hypoglycémiant (souris ob/ob): 150-200 mg/kg/jour

SMILES: CC1(COc2ccc(CC3SC(=O)NC3=O)cc2)CCCCC1 (stereo not drawn) [Ciglitazone]
- Pouvoir hypoglycémiant (souris ob/ob): 100
- Dose provoquant le même effet hypoglycémiant (souris ob/ob): 50-100 mg/kg/jour

SMILES: O=C1NC(=O)C(Cc2ccc3c(c2)CC[C@H](Cc2ccccc2)O3)S1 (stereo partly drawn) [Englitazone]
- Pouvoir hypoglycémiant (souris ob/ob): 100
- Dose provoquant le même effet hypoglycémiant (souris ob/ob): 10-20 mg/kg/jour

SMILES: CCc1ccc(CCOc2ccc(CC3SC(=O)NC3=O)cc2)nc1 (stereo not drawn) [Pioglitazone]
- minimal effective dose (souris ob/ob; [1]): 3 mg/kg
- Pouvoir hypoglycémiant (souris ob/ob): 100
- Dose provoquant le même effet hypoglycémiant (souris ob/ob): 10 mg/kg/jour
- Glycémie (%) (rats Zucker Fa/Fa mâles): 103%
- Plasma insuline (%) (rats Zucker Fa/Fa mâles): 61%
- AGL (%) (rats Zucker Fa/Fa mâles): 52%
- TG (%) (rats Zucker Fa/Fa mâles): 44%
